The test has as its system XANST (Xanthium strumarium, common cocklebur). The test can be described thus: Pre-emergence soil-applied mixtures, greenhouse. Type of test: in vivo, Xanthium strumarium L. The note with it: for Visual Weed Control (%) Obs: 32 DAA. An excerpt:
Seeds or nutlets of the desired test plant species were planted in a soil matrix prepared by mixing a loam soil (32 percent silt, 23 percent clay, and 45 percent sand, with a pH of about 6.5 and an organic matter content of about 1.9 percent) and calcareous grit in an 80 to 20 ratio. The soil matrix was contained in plastic pots with a volume of 1 quart and a surface area of 83.6 square centimeters (cm^2).
Treatments consisted of the benzyl ester of 4-amino-3-chloro-5-fluoro-6-(4-chloro-2-fluoro-3-methoxy-phenyl)pyridine-2-carboxylic acid (compound A) formulated as an SC (suspension concentrate) and various herbicidal components alone and in combination. Forms of compound A were applied on an acid equivalent basis.
Other herbicidal components were applied on an acid equivalent or active ingredient basis and included the PSII-inhibiting herbicides, atrazine formulated as Atrazine® 90WDG, metribuzin formulated as Metribuzin 75DF, simazine formulated as Princep Caliber 90, tebuthiuron formulated as Spike 80DF, cyanazine (technical grade material), hexazinone (technical grade material), linuron (technical grade material), terbuthylazine (technical grade material), and diuron formulated as Diuron 4L.
Treatment requirements were calculated based upon the rates being tested, the concentration of active ingredient or acid equivalent in the formulation, and a 12 mL application volume at a rate of 187 L/ha.
For treatments comprised of formulated compounds, measured amounts of compounds were placed individually in 25 mL glass vials and diluted in a volume of 1.25% (v/v) Agri-Dex® crop oil concentrate (COC) to obtain 12× stock solutions. […] Application solutions were prepared by adding an appropriate amount of each stock solution (e.g., 1 mL) and diluted to the appropriate final concentrations with the addition of 10 mL of an aqueous mixture of 1.25% (v/v) COC so that the final spray solutions contained 1.25% (v/v) COC.
For treatments comprised of technical compounds, weighed amounts can be placed individually in 25 mL glass vials and dissolved in a volume of 97:3 (v/v) acetone/DMSO to obtain 12× stock solutions. […] Application solutions can be prepared by adding an appropriate amount of each stock solution (e.g., 1 mL) and diluted to the appropriate final concentrations with the addition of 10 mL of an aqueous mixture of 1.5% (v/v) COC so that the final spray solutions contain 1.25% (v/v) COC. When technical materials are used, the concentrated stock solutions can be added to the spray solutions so that the final acetone and DMSO concentrations of the application solutions are 16.2% and 0.5%, respectively.
For treatments comprised of formulated and technical compounds, weighed amounts of the technical materials can be placed individually in 25 mL glass vials and dissolved in a volume of 97:3 (v/v) acetone/DMSO to obtain 12× stock solutions, and measured amounts of the formulated compounds can be placed individually in 25 mL glass vials and diluted in a volume of 1.5% (v/v) COC or water to obtain 12× stock solutions. […] Application solutions can be prepared by adding an appropriate amount of each stock solution (e.g., 1 mL) and diluted to the appropriate final concentrations with the addition of an appropriate amount of an aqueous mixture of 1.5% (v/v) COC so that the final spray solutions contain 1.25% (v/v) COC. As required, additional water and/or 97:3 (v/v) acetone/DMSO can be added to individual application solutions so that the final acetone and DMSO concentrations of the application solutions being compared are 8.1% and 0.25%, respectively.
All stock solutions and applications solutions were visually inspected for compound compatibility prior to application. Spray solutions were applied to the soil with an overhead Mandel track sprayer equipped with a 8002E nozzles calibrated to deliver 187 L/ha over an application area of 0.503 m^2 at a spray height of 18 inches (46 cm) above average pot height. […]

[1] abbreviates: Compound A Benzyl Ester 16 g ae/ha.
The mark [2] stands for this setting: Compound A Benzyl Ester 32 g ae/ha.

Consider three compounds from patent US8912121B2, “Herbicidal compositions comprising 4-amino-3-chloro-5-fluoro-6-(4-chloro-2-fluoro-3-methoxyphenyl)pyridine-2-carboxylic acid or a derivative thereof and certain PS II inhibitors” (Dow Agrosciences LLC, priority 2012, dated 2014).

Structures are written as SMILES.

As to `CCNc1nc(Cl)nc(NC(C)C)n1` [Atrazine, 6-chloro-N-ethyl-N′-(1-methylethyl)-1,3,5-triazine-2,4-diamine, reference compound], the “Visual Weed Control (%) Obs” value by setting is: (560 g ai/ha) 68%; (1120 g ai/ha) 40%.
Regarding `COc1c(Cl)ccc(-c2nc(C(=O)OCc3ccccc3)c(Cl)c(N)c2F)c1F` [Compound A Benzyl Ester, benzyl ester of 4-amino-3-chloro-5-fluoro-6-(4-chloro-2-fluoro-3-methoxy-phenyl)pyridine-2-carboxylic acid], the “Visual Weed Control (%) Obs” value (8 g ae/ha) came out at 33%, the “Visual Weed Control (%) Obs” value (16 g ae/ha) came to 35% and the “Visual Weed Control (%) Obs” value (32 g ae/ha) is 65%. Further, the “Visual Weed Control (%) - 27 DAA XANST Obs” value reads like this: under setting [1], 10%; under setting [2], 25%. The “Visual Weed Control (%) - 29 DAA XANST Obs” value reads like this: under setting [1], 0%; under setting [2], 5%. Moreover, the “Visual Weed Control (%) - 33 DAA XANST Obs” value runs as follows: under setting [1], 38%; under setting [2], 35%.
Regarding `CCNc1nc(Cl)nc(NCC)n1` [Simazine, 6-chloro-N,N′-diethyl-1,3,5-triazine-2,4-diamine, reference compound], the “Visual Weed Control (%) - 33 DAA XANST Obs” value is on record as 70% (Simazine 1120 g ai/ha) and 92% (Simazine 2240 g ai/ha).
